Settings: Liquid, Closed cell (Static) method

CCCCCCCC(=O)OCC [ethyl octanoate]
Settings | vapor or sublimation pressure [kPa]
273.26 K | 0.00219
283.08 K | 0.00627
293.05 K | 0.0156
303.09 K | 0.035
313.2 K | 0.0757
323.31 K | 0.152
351.9 K | 0.869
362.1 K | 1.487
372.06 K | 2.432
382.13 K | 3.872
392.19 K | 5.904
402.13 K | 8.723
412.13 K | 12.67
422.12 K | 18.04
432.22 K | 25.22
442.26 K | 34.49
452.3 K | 46.42

CCCCCCCCCCCCCC(=O)OCC [ethyl tetradecanoate]
Settings | vapor or sublimation pressure [kPa]
333.22 K | 0.00147
343.19 K | 0.00361
353.15 K | 0.00775
363.09 K | 0.0163
371.72 K | 0.0302
382.03 K | 0.0572
391.87 K | 0.105
401.89 K | 0.187
411.93 K | 0.322
421.97 K | 0.539
432.22 K | 0.887
442.39 K | 1.394
452.25 K | 2.127
462.3 K | 3.2

CCCCCC(=O)OCC [ethyl hexanoate]
Settings | vapor or sublimation pressure [kPa]
253.41 K | 0.00344
263.26 K | 0.0106
283.06 K | 0.0663
293.05 K | 0.144
303.03 K | 0.291
313.15 K | 0.562
323.18 K | 1.018
333.11 K | 1.781
343.09 K | 2.978
351.97 K | 4.553
362.1 K | 7.184
372.13 K | 10.93
382.15 K | 16.07
392.23 K | 23.19
402.19 K | 32.56
412.21 K | 44.9
422.19 K | 60.62
432.28 K | 80.76
442.29 K | 105.57
452.34 K | 136.73
462.43 K | 174.6

CCCCCCCCCCCC(=O)OCC [ethyl dodecanoate]
Settings | vapor or sublimation pressure [kPa]
313.1 K | 0.00183
351.88 K | 0.0346
362.1 K | 0.0674
372.12 K | 0.124
382.17 K | 0.229
392.24 K | 0.399
402.2 K | 0.669
422.15 K | 1.695
432.26 K | 2.647
442.27 K | 3.986
452.31 K | 5.804
462.43 K | 8.49

CCCCCCCCCC(=O)OCC [ethyl decanoate]
Settings | vapor or sublimation pressure [kPa]
303.1 K | 0.00446
313.16 K | 0.0105
333.23 K | 0.0478
343.2 K | 0.0952
353.16 K | 0.181
363.12 K | 0.328
412.15 K | 3.65
422.13 K | 5.472
432.24 K | 8.07
442.23 K | 11.55
452.28 K | 16.28
462.37 K | 22.35
